# From US11192891B2, “Diazaspiro ROCK inhibitors” (BRISTOL-MYERS SQUIBB COMPANY, priority 2017, dated 2021)
# Molecular target: ROCK2 (Homo sapiens, UniProt O75116)
# Experiment: ROCK kinase inhibition assay, FITC peptide substrate, LABCHIP 3000 readout
# Format: biochemical
# Conditions: 5 μM ATP, 1.5 μM peptide substrate
# In short: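 Rho kinase variants started the reaction with compound present (DMSO <2%); after incubation, EDTA stop, and phosphorylated and non-phosphorylated peptide separated by microfluidic electrophoresis. Dose-response format, inhibition calculated at each concentration.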
# Sequence of ROCK2 (O75116 whole entry, species assumed): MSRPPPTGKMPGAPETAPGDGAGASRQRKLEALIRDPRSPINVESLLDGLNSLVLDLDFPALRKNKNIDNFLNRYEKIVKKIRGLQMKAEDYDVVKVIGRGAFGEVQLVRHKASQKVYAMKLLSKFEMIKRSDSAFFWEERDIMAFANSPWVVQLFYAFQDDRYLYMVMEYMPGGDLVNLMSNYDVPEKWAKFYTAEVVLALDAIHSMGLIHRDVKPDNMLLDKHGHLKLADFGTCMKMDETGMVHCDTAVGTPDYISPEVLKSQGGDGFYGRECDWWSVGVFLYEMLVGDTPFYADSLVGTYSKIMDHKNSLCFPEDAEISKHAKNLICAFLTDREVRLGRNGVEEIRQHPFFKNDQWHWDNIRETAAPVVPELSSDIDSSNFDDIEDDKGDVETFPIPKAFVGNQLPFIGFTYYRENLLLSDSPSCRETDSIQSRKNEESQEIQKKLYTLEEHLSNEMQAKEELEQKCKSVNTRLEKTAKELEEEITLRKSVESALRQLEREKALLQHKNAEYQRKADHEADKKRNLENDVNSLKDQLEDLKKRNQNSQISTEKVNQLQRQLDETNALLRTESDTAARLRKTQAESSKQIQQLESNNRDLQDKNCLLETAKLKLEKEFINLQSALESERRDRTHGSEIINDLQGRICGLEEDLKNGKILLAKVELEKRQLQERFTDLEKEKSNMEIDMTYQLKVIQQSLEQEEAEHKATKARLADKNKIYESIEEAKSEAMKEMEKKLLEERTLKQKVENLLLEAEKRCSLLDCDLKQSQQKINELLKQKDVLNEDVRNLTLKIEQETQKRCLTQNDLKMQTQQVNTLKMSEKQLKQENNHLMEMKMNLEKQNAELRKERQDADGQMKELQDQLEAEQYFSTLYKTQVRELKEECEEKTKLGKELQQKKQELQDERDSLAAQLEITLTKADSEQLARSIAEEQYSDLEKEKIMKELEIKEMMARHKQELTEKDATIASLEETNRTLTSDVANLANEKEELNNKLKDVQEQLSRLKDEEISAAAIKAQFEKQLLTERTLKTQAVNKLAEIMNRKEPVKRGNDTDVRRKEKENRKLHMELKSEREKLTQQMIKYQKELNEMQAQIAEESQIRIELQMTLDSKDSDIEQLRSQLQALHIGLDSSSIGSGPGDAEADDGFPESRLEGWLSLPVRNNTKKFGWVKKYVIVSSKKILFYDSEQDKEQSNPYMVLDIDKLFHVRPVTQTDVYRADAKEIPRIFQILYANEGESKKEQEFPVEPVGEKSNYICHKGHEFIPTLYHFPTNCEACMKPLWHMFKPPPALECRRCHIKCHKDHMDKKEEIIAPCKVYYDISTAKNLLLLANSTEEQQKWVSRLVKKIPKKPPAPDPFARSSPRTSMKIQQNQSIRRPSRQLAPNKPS
row,Compound,IC50 [nM]
1,"COc1cc(N2CCC3(CCN(C(=O)c4cccc5cccnc45)CC3)C2=O)ccc1-c1cn[nH]c1 [Example 149, 2-[3-methoxy-4-(1H-pyrazol-4-yl)phenyl]-8-(quinoline-8-carbonyl)-2,8-diazaspiro[4.5]decan-1-one]",251
2,"COc1cc(N2CCC3(CCN(C(=O)c4ccc(N5CCN(Cc6ccc(-c7ccccc7)cc6)CC5)cc4)CC3)C2=O)ccc1-c1cn[nH]c1 [Example 225, 8-{4-[4-({[1,1′-biphenyl]-4-yl}methyl)piperazin-1-yl]benzoyl}-2-[3-methoxy-4-(1H-pyrazol-4-yl)phenyl]-2,8-diazaspiro[4.5]decan-1-one]",4.5
3,"COC(=O)c1ccc(S(=O)(=O)N2CCC3(CCN(c4ccc(-c5cn[nH]c5)c(OC)c4)C3=O)CC2)o1 [Example 208, methyl 5-({2-[3-methoxy-4-(1H-pyrazol-4-yl)phenyl]-1-oxo-2,8-diazaspiro[4.5]decan-8-yl}sulfonyl)furan-2-carboxylate]",2070
4,"COc1cc(N2CCC3(CCN(C(=O)Nc4ccc(N(C)C)cc4)CC3)C2=O)ccc1-c1cn[nH]c1 [Example 215, N-[4-(dimethylamino)phenyl]-2-[3-methoxy-4-(1H-pyrazol-4-yl)phenyl]-1-oxo-2,8-diazaspiro[4.5]decane-8-carboxamide]",791
5,"COc1ccc(C(=O)N2CCC3(CC2)CCN(c2cccc(-c4ccc5[nH]ncc5c4)c2)C3=O)cc1 [Example 52, 2-[3-(1H-indazol-5-yl)phenyl]-8-(4-methoxybenzoyl)-2,8-diazaspiro[4.5]decan-1-one]",1870
6,"COc1cc(N2CCC3(CCN(C(=O)c4ccc(N5CCN(C)CC5)cc4Cl)CC3)C2=O)ccc1-c1cn[nH]c1 [Example 27, 8-[2-chloro-4-(4-methylpiperazin-1-yl)benzoyl]-2-[3-methoxy-4-(1H-pyrazol-4-yl)phenyl]-2,8-diazaspiro[4.5]decan-1-one]",0.8
7,"COc1ccc(C(=O)N2CCC3(CC2)CN(c2ccc(-c4cn[nH]c4)cc2)C3=O)cc1 [Example 40, 7-(4-methoxybenzoyl)-2-[4-(1H-pyrazol-4-yl)phenyl]-2,7-diazaspiro[3.5]nonan-1-one]",132
8,"CN1CCN(c2ccc(C(=O)N3CCC4(CC3)CCN(c3ccc(-c5ccnc(N)c5)cc3)C4=O)cc2)CC1 [Example 36, 2-[4-(2-aminopyridin-4-yl)phenyl]-8-[4-(4-methylpiperazin-1-yl)benzoyl]-2,8-diazaspiro[4.5]decan-1-one]",2
9,"COc1cc(N2CCC3(CCN(C(=O)c4c(C)cc(C(N)=O)cc4C)CC3)C2=O)ccc1-c1cn[nH]c1 [Example 30, 4-{2-[3-methoxy-4-(1H-pyrazol-4-yl)phenyl]-1-oxo-2,8-diazaspiro[4.5]decane-8-carbonyl}-3,5-dimethylbenzamide]",130
10,"COc1ccc(S(=O)(=O)N2CCC3(CCN(c4ccc(-c5cn[nH]c5)c(OC)c4)C3=O)CC2)cc1 [Example 206, 2-[3-methoxy-4-(1H-pyrazol-4-yl)phenyl]-8-(4-methoxybenzenesulfonyl)-2,8-diazaspiro[4.5]decan-1-one]",497
11,"COc1cc(N2CCC3(CCN(C(=O)C4Cc5ccccc5O4)CC3)C2=O)ccc1-c1cn[nH]c1 (stereo not drawn) [Example 102, 8-(2,3-dihydro-1-benzofuran-2-carbonyl)-2-[3-methoxy-4-(1H-pyrazol-4-yl)phenyl]-2,8-diazaspiro[4.5]decan-1-one]",1970
12,"COc1cc(N2CCC3(CCN(C(=O)c4ccc(C(=O)NCC5CC5)cc4)CC3)C2=O)ccc1-c1cn[nH]c1 [Example 26, N-(cyclopropylmethyl)-4-{2-[3-methoxy-4-(1H-pyrazol-4-yl)phenyl]-1-oxo-2,8-diazaspiro[4.5]decane-8-carbonyl}benzamide]",119
13,"COc1ccc(C(=O)N2CCC3(CC2)CCN(c2ccc(-c4cn[nH]c4)c(OC)c2)C3=O)c(OC)n1 [Example 80, 8-(2,6-dimethoxypyridine-3-carbonyl)-2-[3-methoxy-4-(1H-pyrazol-4-yl)phenyl]-2,8-diazaspiro[4.5]decan-1-one]",99
14,"COc1cc(N2CCC3(CCN(C(=O)c4ccc(-c5ccncc5)cc4)CC3)C2=O)ccc1-c1cn[nH]c1 [Example 171, 2-[3-methoxy-4-(1H-pyrazol-4-yl)phenyl]-8-[4-(pyridin-4-yl)benzoyl]-2,8-diazaspiro[4.5]decan-1-one]",5.5
15,"COc1cc(N2CCC3(CCN(C(=O)c4ccc(CS(C)(=O)=O)cc4)CC3)C2=O)ccc1-c1cn[nH]c1 [Example 169, 8-[4-(methanesulfonylmethyl)benzoyl]-2-[3-methoxy-4-(1H-pyrazol-4-yl)phenyl]-2,8-diazaspiro[4.5]decan-1-one]",13
16,"COc1cc(N2CCC3(CCN(C(=O)c4nnc(-c5ccccn5)[nH]c4=O)CC3)C2=O)ccc1-c1cn[nH]c1 [Example 125, 2-[3-methoxy-4-(1H-pyrazol-4-yl)phenyl]-8-[5-oxo-3-(pyridin-2-yl)-4,5-dihydro-1,2,4-triazine-6-carbonyl]-2,8-diazaspiro[4.5]decan-1-one]",26
17,"COc1cc(N2CCC3(CCN(C(=O)c4ccc(N5CCN(Cc6csnn6)CC5)cc4)CC3)C2=O)ccc1-c1cn[nH]c1 [Example 224, 2-[3-methoxy-4-(1H-pyrazol-4-yl)phenyl]-8-(4-{4-[(1,2,3-thiadiazol-4-yl)methyl]piperazin-1-yl}benzoyl)-2,8-diazaspiro[4.5]decan-1-one]",1.5
18,"COc1cc(N2CCC3(CCN(C(=O)c4ccc(N5CCN(C6CCN(C)CC6)CC5)cc4)CC3)C2=O)ccc1-c1cn[nH]c1 [Example 244, 2-[3-methoxy-4-(1H-pyrazol-4-yl)phenyl]-8-{4-[4-(1-methylpiperidin-4-yl)piperazin-1-yl]benzoyl}-2,8-diazaspiro[4.5]decan-1-one]",0.9
19,"COc1cc(N2CCC3(CCN(C(=O)c4c[nH]c5ccc(C#N)cc45)CC3)C2=O)ccc1-c1cn[nH]c1 [Example 201, 3-{2-[3-methoxy-4-(1H-pyrazol-4-yl)phenyl]-1-oxo-2,8-diazaspiro[4.5]decane-8-carbonyl}-1H-indole-5-carbonitrile]",718

# The remaining lines, values ahead:
row,IC50 [nM],Compound
1,88,"COc1cc(N2CCC3(CCN(C(=O)c4ncc(Br)cn4)CC3)C2=O)ccc1-c1cn[nH]c1 [Example 116, 8-(5-bromopyrimidine-2-carbonyl)-2-[3-methoxy-4-(1H-pyrazol-4-yl)phenyl]-2,8-diazaspiro[4.5]decan-1-one]"
2,200,"COc1cc(N2CCC3(CCN(C(=O)c4cnc(Cl)cn4)CC3)C2=O)ccc1-c1cn[nH]c1 [Example 115, 8-(5-chloropyrazine-2-carbonyl)-2-[3-methoxy-4-(1H-pyrazol-4-yl)phenyl]-2,8-diazaspiro[4.5]decan-1-one]"
3,259,"COc1cc(N2CCC3(CCN(C(=O)c4ccc(C(F)(F)F)cn4)CC3)C2=O)ccc1-c1cn[nH]c1 [Example 98, 2-[3-methoxy-4-(1H-pyrazol-4-yl)phenyl]-8-[5-(trifluoromethyl)pyridine-2-carbonyl]-2,8-diazaspiro[4.5]decan-1-one]"
4,8,"COc1ccc(C(=O)N2CCC3(CC2)CCN(c2ccc(-c4cn[nH]c4)c(OC)c2)C3=O)cc1F [Example 14, 8-(3-fluoro-4-methoxybenzoyl)-2-[3-methoxy-4-(1H-pyrazol-4-yl)phenyl]-2,8-diazaspiro[4.5]decan-1-one]"
5,117,"COc1cc(N2CCC3(CCN(C(=O)c4cccs4)CC3)C2=O)ccc1-c1cn[nH]c1 [Example 89, 2-[3-methoxy-4-(1H-pyrazol-4-yl)phenyl]-8-(thiophene-2-carbonyl)-2,8-diazaspiro[4.5]decan-1-one]"
6,57,"COc1cc(N2CCC3(CCN(C(=O)c4cnc5n(c4=O)CCS5)CC3)C2=O)ccc1-c1cn[nH]c1 [Example 81, 2-[3-methoxy-4-(1H-pyrazol-4-yl)phenyl]-8-{5-oxo-2H,3H,5H-[1,3]thiazolo[3,2-a]pyrimidine-6-carbonyl}-2,8-diazaspiro[4.5]decan-1-one]"
7,72,"COc1cc(N2CCC3(CCN(C(=O)c4cc(C)on4)CC3)C2=O)ccc1-c1cn[nH]c1 [Example 104, 2-[3-methoxy-4-(1H-pyrazol-4-yl)phenyl]-8-(5-methyl-1,2-oxazole-3-carbonyl)-2,8-diazaspiro[4.5]decan-1-one]"
8,382,"COc1cc(N2CCC3(CCN(C(=O)c4ccsc4)CC3)C2=O)ccc1-c1cn[nH]c1 [Example 67, 2-[3-methoxy-4-(1H-pyrazol-4-yl)phenyl]-8-(thiophene-3-carbonyl)-2,8-diazaspiro[4.5]decan-1-one]"
9,414,"COc1cc(N2CCC3(CCN(C(=O)c4cccnc4)CC3)C2=O)ccc1-c1cn[nH]c1 [Example 73, 2-[3-methoxy-4-(1H-pyrazol-4-yl)phenyl]-8-(pyridine-3-carbonyl)-2,8-diazaspiro[4.5]decan-1-one]"
10,6,"COc1ccc(C(=O)N2CCC3(CC2)CCN(c2ccc(-c4cn[nH]c4)c(OC)c2)C3=O)cc1Cl [Example 22, 8-(3-chloro-4-methoxybenzoyl)-2-[3-methoxy-4-(1H-pyrazol-4-yl)phenyl]-2,8-diazaspiro[4.5]decan-1-one]"
11,289,"COc1cc(N2CCC3(CCN(C(=O)c4cnccn4)CC3)C2=O)ccc1-c1cn[nH]c1 [Example 71, 2-[3-methoxy-4-(1H-pyrazol-4-yl)phenyl]-8-(pyrazine-2-carbonyl)-2,8-diazaspiro[4.5]decan-1-one]"
12,372,"COc1cc(N2CCC3(CCN(C(=O)c4ccc(C)s4)CC3)C2=O)ccc1-c1cn[nH]c1 [Example 66, 2-[3-methoxy-4-(1H-pyrazol-4-yl)phenyl]-8-(5-methylthiophene-2-carbonyl)-2,8-diazaspiro[4.5]decan-1-one]"
13,1430,"COc1cc(N2CCC3(CCN(C(=O)c4ccc(C(=O)O)cc4)CC3)C2=O)ccc1-c1cn[nH]c1 [Example 25, 4-{2-[3-methoxy-4-(1H-pyrazol-4-yl)phenyl]-1-oxo-2,8-diazaspiro[4.5]decane-8-carbonyl}benzoic acid]"
14,219,"COc1cc(N2CCC3(CCN(C(=O)c4ccc(C)nc4)CC3)C2=O)ccc1-c1cn[nH]c1 [Example 72, 2-[3-methoxy-4-(1H-pyrazol-4-yl)phenyl]-8-(6-methylpyridine-3-carbonyl)-2,8-diazaspiro[4.5]decan-1-one]"
